A flash point compilation (Sun et al. 2020)
Each block holds one compound with its values, some of them ahead of it.

Columns and labels:
[1] = not given; remark: listed apart in the source
[2] = not given; remark: listed apart in the source
[3] = not given; remark: listed apart in the source
[4] = not given; remark: listed apart in the source
[5] = not given; remark: listed apart in the source

SMILES: CC(C)(CO)[C@@H](O)C(=O)NCCCO
flash point: 113.00 °C

SMILES: CC(C)C(=O)OCC(C)(C)C(O)C(C)C (stereo unspecified)
flash point: 120.00 °C

SMILES: CO[C@H]1CO[C@H]2[C@@H]1OC[C@H]2OC
flash point: 103.00 °C

SMILES: O=C(OCC1CCC(COC(=O)c2ccccc2)CC1)c1ccccc1 (stereo unspecified)
flash point: 161.00 °C

SMILES: CC1(C)CCCC1 [1,1-dimethylcyclopentane]
flash point [1]: -16 °C

SMILES: C1=CCCC=C1 [1,3-cyclohexadiene]
flash point [1]: -16 °C
flash point [2]: 26 °C

SMILES: OC(CBr)CCBr (stereo unspecified) [1,4-dibromobutan-2-ol]
flash point: 113.00 °C

SMILES: C=CCC=CC [1,4-hexadiene]
flash point [1]: -25 °C

SMILES: CC(O)CNCC(C)O (stereo unspecified) [1-(2-hydroxypropylamino)propan-2-ol]
flash point: 126.00 °C

SMILES: O=C1CCCN1C1CCCCC1 [1-cyclohexyl-2-pyrrolidinone]
flash point: 145.00 °C

SMILES: CCc1ccccc1C(C)C [1-ethyl-2-isopropylbenzene]
flash point [1]: 58 °C

SMILES: C=CCCCCCCCCCCCCCCC [1-heptadecene]
flash point [3]: 141 °C
flash point [1]: 135 °C

SMILES: C=CCCCCCCCCCCC [1-tridecene]
flash point [3]: 92 °C
flash point [1]: 79 °C
flash point [2]: 80 °C

SMILES: OCC(F)(F)F [2,2,2-trifluoroethanol]
flash point: 29.00 °C

SMILES: CCCC(C)(C)C(C)(C)C [2,2,3,3-tetramethylhexane]
flash point [1]: 31 °C

SMILES: CC(C)C(C)(C)C [2,2,3-trimethylbutane]
flash point [1]: -24 °C
flash point [2]: -6 °C

SMILES: CC(C)CC(C)(C)CO [2,2,4-trimethylpentan-1-ol]
flash point: 60.00 °C

SMILES: CC(C)(C)CCC(C)(C)C [2,2,5,5-tetramethylhexane]
flash point [1]: 16 °C

SMILES: CC(C)C(C)(C)C(C)C [2,3,3,4-tetramethylpentane]
flash point [1]: 11 °C

SMILES: C=C(C)C(C)(C)C [2,3,3-trimethyl-1-butene]
flash point [1]: -17 °C

SMILES: C=C(C)C(C)CC (stereo unspecified) [2,3-dimethyl-1-pentene]
flash point [1]: -17 °C

SMILES: CCCC(C)C(C)C (stereo unspecified) [2,3-dimethylhexane]
flash point [1]: 5 °C
flash point [2]: -3 °C

SMILES: CC(C)(O)C#CC(C)(C)O [2,5-dimethylhex-3-yne-2,5-diol]
flash point: 73.90 °C

SMILES: CCC(C)CCCC(C)C (stereo unspecified) [2,6-dimethyloctane]
flash point [1]: 34 °C

SMILES: NCCOCCO [2-(2-aminoethoxy)ethanol]
flash point: 127.00 °C

SMILES: C=CCOCC1CO1 (stereo unspecified) [2-(allyloxymethyl)oxirane]
flash point: 48.00 °C

SMILES: CC(O)COC(C)COC(C)CO (stereo unspecified) [2-[2-(2-hydroxypropoxy)propoxy]propan-1-ol]
flash point: 143.33 °C

SMILES: C=C(CC)CCC [2-ethyl-1-pentene]
flash point [1]: -10 °C

SMILES: COC(C)(C)C [2-methoxy-2-methylpropane]
flash point: -34.44 °C

SMILES: CCCCCC(C)C [2-methylheptane]
flash point [1]: 5 °C
flash point [4]: 4.00 °C

SMILES: C=C(C)C [2-methylprop-1-ene]
flash point: -116.00 °C

SMILES: CC#CCCCCC [2-octyne]
flash point [3]: 24 °C
flash point [1]: 18 °C
flash point [2]: 28 °C

SMILES: N#Cc1ccccn1 [2-pyridinecarbonitrile]
flash point: 89.00 °C

SMILES: C=CC(C)(C)C [3,3-dimethyl-1-butene]
flash point [1]: -29 °C
flash point [2]: -28 °C

SMILES: C#CC(C)(C)C [3,3-dimethyl-1-butyne]
flash point [1]: -34 °C

SMILES: CC1CNCC(C)C1 (stereo unspecified) [3,5-dimethylpiperidine]
flash point: 21.50 °C

SMILES: CCC(C)(O)C#CC(C)(O)CC (stereo unspecified) [3,6-dimethyloct-4-yne-3,6-diol]
flash point: 109.00 °C

SMILES: OCCCOCCCO [3-(3-hydroxypropoxy)propan-1-ol]
flash point: 123.89 °C

SMILES: Brc1cccnc1 [3-bromopyridine]
flash point: 51.00 °C

SMILES: CCC(CC)C(C)C [3-ethyl-2-methylpentane]
flash point [1]: 3 °C

SMILES: CCC(CC)CC [3-ethylpentane]
flash point [1]: -12 °C

SMILES: CCCCCCC(C)CC (stereo unspecified) [3-methylnonane]
flash point [1]: 41 °C

SMILES: N#Cc1cccnc1 [3-pyridinecarbonitrile]
flash point: 84.00 °C

SMILES: C=CCC(C)(C)C [4,4-dimethyl-1-pentene]
flash point [1]: -12 °C

SMILES: CC#CC(C)(C)C [4,4-dimethyl-2-pentyne]
flash point [1]: -10 °C

SMILES: C=CC=C(C)C [4-methyl-1,3-pentadiene]
flash point [1]: -18 °C
flash point [2]: -34 °C

SMILES: C=CCC(C)CC (stereo unspecified) [4-methyl-1-hexene]
flash point [1]: -15 °C

SMILES: C#CCC(C)C [4-methyl-1-pentyne]
flash point [1]: -24 °C

SMILES: CCCCC(C)CCC (stereo unspecified) [4-methyloctane]
flash point [1]: 22 °C

SMILES: C#CCC(C)C [4-methylpent-1-yne]
flash point: -4.00 °C

SMILES: N#Cc1ccncc1 [4-pyridinecarbonitrile]
flash point: 88.00 °C

SMILES: C=CCCC(C)C [5-methyl-1-hexene]
flash point [1]: -10 °C

SMILES: C#CCCC(C)C [5-methyl-1-hexyne]
flash point [1]: -4 °C

SMILES: Cc1cccc(N)n1 [6-methyl-2-pyridinamine]
flash point: 103.00 °C

SMILES: C=CCCCCC(C)C [7-methyl-1-octene]
flash point [1]: 18 °C

SMILES: OC[C@@H](O)[C@@H](O)[C@H](O)[C@@H](O)CO [(2R,3R,4R,5S)-hexane-1,2,3,4,5,6-hexol]
flash point: 148.90 °C

SMILES: OC/C=C/CO [(E)-but-2-ene-1,4-diol]
flash point: 128.00 °C

SMILES: C/C=C\CC [(Z)-pent-2-ene]
flash point: -18.00 °C

SMILES: CC(C)(C)O[Si](C)(C)C [t-Butoxytrimethylsilane]
flash point [5]: 14.00 °C

SMILES: C1CC[C@H]2CCCC[C@@H]2C1 [trans-decalin]
flash point [1]: 52 °C

The next lines start with the values.

flash point [1]: 8 °C
SMILES: C[C@H]1CCC[C@H](C)C1 (relative stereo) [trans-1,3-dimethylcyclohexane]

flash point [5]: 67.00 °C
SMILES: C[SiH](C)O[Si](O[SiH](C)C)(O[SiH](C)C)O[SiH](C)C [Tetrakisdimethylsiloxysilane]

flash point [5]: 43.00 °C
SMILES: CCC[SiH](CCC)CCC [Tri-n-propylsilane]

flash point [5]: 91.00 °C
SMILES: Cl[Si](Cl)(Cl)CCc1ccccc1 [Trichloro(2-phenylethyl)silane]

flash point [5]: 92.00 °C
SMILES: N#CCCC[Si](Cl)(Cl)Cl [Trichloro(3-cyanopropyl) Silane]

flash point [5]: 69.00 °C
SMILES: ClC[Si](Cl)(Cl)Cl [Trichloro(Chloromethyl) silane]

flash point [5]: -3.00 °C
SMILES: CC[SiH](CC)CC [Triethylsilane]

flash point [5]: -10.00 °C
SMILES: C=CO[Si](C)(C)C [Trimethyl(vinyloxy)silane]

flash point [5]: 10.00 °C
SMILES: CCCO[Si](C)(C)C [Trimethyl-n-propoxysilane]

flash point [5]: -35.00 °C
SMILES: C[Si](C)(C)F [Trimethylfluorosilane]

flash point [5]: 12.00 °C
SMILES: C=C[Si](C)(C)O[Si](C)(C)C [Vinylpentamethyldisiloxane]

flash point [5]: 23.00 °C
SMILES: C=C[Si](OC)(OC)OC [Vinyltrimethoxysilane]

flash point [5]: 80.00 °C
SMILES: C=C[Si](OCCOC)(OCCOC)OCCOC [Vinyltris(methoxyethoxy)silane]

flash point [1]: 11 °C
flash point [2]: 12 °C
SMILES: C[C@@H]1CCCC[C@@H]1C [cis-1,2-dimethylcyclohexane]

flash point [1]: -4 °C
SMILES: C[C@@H]1CCC[C@@H]1C [cis-1,2-dimethylcyclopentane]

flash point [1]: -26 °C
SMILES: C/C=C\CCC [cis-2-hexene]

flash point [1]: -47 °C
SMILES: C/C=C\CC [cis-2-pentene]

flash point [1]: -28 °C
SMILES: CC/C=C\CC [cis-3-hexene]

flash point [1]: 17 °C
SMILES: CC/C=C\CCCC [cis-3-octene]

flash point [1]: 17 °C
SMILES: CCC/C=C\CCC [cis-4-octene]

flash point [1]: 25 °C
SMILES: C1=CCCCCCC1 [cyclooctene]

flash point [1]: -4 °C
SMILES: CCC1CCCC1 [ethylcyclopentane]

flash point [1]: 50 °C
SMILES: Cc1cccc(C(C)C)c1 [m-isopropyltoluene]

flash point [5]: 120.00 °C
SMILES: CCCCCCCCCC[Si](C)(Cl)Cl [n-Decylmethyldichlorosilane]

flash point [5]: 143.00 °C
SMILES: CCCCCCCCCCCC[Si](C)(Cl)Cl [n-Dodecylmethyldichlorosilane]

flash point [5]: 162.00 °C
SMILES: CCCCCCCCCCCC[Si](Cl)(Cl)Cl [n-Dodecyltrichlorosilane]

flash point [5]: 85.00 °C
SMILES: CCCCCC[Si](C)(Cl)Cl [n-Hexylmethyldichlorosilane]

flash point [5]: 85.00 °C
SMILES: CCCCCC[Si](Cl)(Cl)Cl [n-Hexyltrichlorosilane]

flash point [5]: 97.00 °C
SMILES: CCCCCCCC[Si](C)(C)Cl [n-Octyldimethylchlorosilane]

flash point [5]: 96.00 °C
SMILES: CCCCCCCC[Si](Cl)(Cl)Cl [n-Octyltrichlorosilane]

flash point [5]: 27.00 °C
SMILES: CCC[Si](C)(Cl)Cl [n-Propylmethyldichlorosilane]

flash point [1]: 48 °C
flash point [2]: 41 °C
SMILES: CCCCC1CCCCC1 [n-butylcyclohexane]

flash point [1]: 117 °C
SMILES: CCCCCCCCCc1ccccc1 [n-nonylbenzene]

flash point [1]: 31 °C
flash point [2]: 35 °C
SMILES: CCCC1CCCCC1 [n-propylcyclohexane]

flash point [5]: 49.00 °C
SMILES: C[Si](C)(C)c1ccc(Cl)cc1 [p-Chlorophenyltrimethylsilane]

flash point [5]: 22.00 °C
SMILES: CC(C)(C)[Si](C)(C)Cl [t-Butyldimethylchlorosilane]

flash point [5]: -22.00 °C
SMILES: C[SiH](C)C(C)(C)C [t-Butyldimethylsilane]

flash point [5]: 45.00 °C
SMILES: CC(C)(C)[Si](C)(C)O [t-Butyldimethylsilanol]

flash point [1]: 6 °C
SMILES: C[C@H]1CC[C@H](C)CC1 [trans-1,4-dimethylcyclohexane]

flash point [1]: -6 °C
SMILES: C/C=C/CCCC [trans-2-heptene]

flash point [1]: 14 °C
SMILES: C/C=C/CCCCC [trans-2-octene]

flash point [1]: -45 °C
SMILES: C/C=C/CC [trans-2-pentene]

flash point [1]: -6 °C
SMILES: CC/C=C/CCC [trans-3-heptene]

flash point [1]: 9 °C
SMILES: CC/C=C/CCCC [trans-3-octene]

flash point [1]: -34 °C
SMILES: C/C=C/C(C)C [trans-4-methyl-2-pentene]

flash point [1]: 8 °C
SMILES: CCC/C=C/CCC [trans-4-octene]

flash point [1]: 21 °C
SMILES: C=CC1CCCCC1 [vinylcyclohexane]
